± gives the expanded uncertainty stated by the source.
Test: xn = mol fraction of the nth substance listed
Settings: 100 kPa, Liquid; for speed of sound: Frequency=3 MHz, Sing-around technique in a fixed-path interferometer; for mass density: Vibrating tube method

OCCCO [propan-1,3-diol] + O
Settings | mass density, 283.15 K [kg/m3] | mass density, 293.15 K [kg/m3] | mass density, 303.15 K [kg/m3] | mass density, 313.15 K [kg/m3] | speed of sound, 283.15 K [m/s] | speed of sound, 293.15 K [m/s] | speed of sound, 303.15 K [m/s] | speed of sound, 313.15 K [m/s]
x2 = 0 | 1058.85 ± 1.3 | 1052.61 ± 1.2 | 1046.36 ± 1.2 | 1040.07 ± 1.2 | 1659.5 ± 2.6 | 1636.3 ± 2.6 | 1613.6 ± 2.6 | 1591.1 ± 2.6
x2 = 0.1022 | 1059.27 ± 1.2 | 1053.04 ± 1.1 | 1046.79 ± 1.1 | 1040.48 ± 1.1 | 1672.9 ± 2.5 | 1650.1 ± 2.5 | 1627.2 ± 2.5 | 1605 ± 2.5
x2 = 0.201 | 1059.47 ± 1.1 | 1053.26 ± 1.1 | 1047.01 ± 1.1 | 1040.68 ± 1.1 | 1686.6 ± 2.4 | 1664 ± 2.4 | 1641.4 ± 2.4 | 1618.9 ± 2.4
x2 = 0.2987 | 1059.49 ± 1 | 1053.3 ± 1 | 1047.05 ± 1 | 1040.7 ± 1 | 1702 ± 2.3 | 1679.4 ± 2.3 | 1656.8 ± 2.3 | 1634.1 ± 2.3
x2 = 0.3998 | 1059.07 ± 0.98 | 1052.91 ± 0.98 | 1046.67 ± 0.97 | 1040.3 ± 0.97 | 1717.3 ± 2.2 | 1695.2 ± 2.1 | 1672.8 ± 2.1 | 1650.2 ± 2.1
x2 = 0.4997 | 1057.91 ± 0.95 | 1051.82 ± 0.95 | 1045.61 ± 0.94 | 1039.25 ± 0.94 | 1732 ± 2.1 | 1710.5 ± 2 | 1688.7 ± 2 | 1666.4 ± 2
x2 = 0.5997 | 1055.48 ± 0.93 | 1049.54 ± 0.93 | 1043.42 ± 0.92 | 1037.1 ± 0.92 | 1742.7 ± 2 | 1722.7 ± 2 | 1701.9 ± 2 | 1680.5 ± 2
x2 = 0.6999 | 1050.47 ± 0.91 | 1044.85 ± 0.91 | 1039.01 ± 0.91 | 1032.92 ± 0.91 | 1742 ± 1.9 | 1725.1 ± 1.9 | 1707.1 ± 1.9 | 1688.1 ± 1.9
x2 = 0.7999 | 1041.86 ± 0.91 | 1036.89 ± 0.91 | 1031.59 ± 0.91 | 1025.94 ± 0.91 | 1718.2 ± 1.8 | 1707.4 ± 1.8 | 1695 ± 1.8 | 1680.9 ± 1.8
x2 = 0.8997 | 1025.27 ± 0.91 | 1021.75 ± 0.91 | 1017.64 ± 0.91 | 1012.95 ± 0.91 | 1637.8 ± 1.9 | 1641.2 ± 1.8 | 1641.6 ± 1.8 | 1639 ± 1.8

Reference: the NIST ThermoML archive (doi:10.1016/j.tca.2016.09.005)
